# Experimental data as given in ChEMBL document CHEMBL3046490, “Evaluation of fungicides to control circular leaf spot of persimmon caused by Mycosphaerella nawae” (Crop Prot, 2011).
# Tests used:
# Assay type in all cases: functional, organism-based
# [1] = test system: Plurivorosphaerella nawae; assay: Antifungal activity against circular leaf spot causing Mycosphaerella nawae MY1 assessed as inhibition of mycelial growth on potato dextrose agar
# [2] = test system: Plurivorosphaerella nawae; assay: Antifungal activity against circular leaf spot causing Mycosphaerella nawae MY5 assessed as inhibition of mycelial growth on potato dextrose agar
# Zasmidium citrigriseum = assay: Antifungal activity against citrus greasy spot disease caused by Zasmidium citri assessed as inhibition of mycelial growth on potato dextrose agar
# Monilinia fructicola = assay: Antifungal activity against Monilinia fructicola isolated from peach fields assessed as mycelial growth inhibition
SMILES,EC50 [1] [mg/L],EC50 [2] [mg/L],EC50 (Zasmidium citrigriseum) [ppm],EC50 (Monilinia fructicola) [ppm]
O=C1C2CC=CCC2C(=O)N1SC(Cl)(Cl)Cl (stereo not given) [CAPTAN],> 100,> 100,–,–
N#Cc1c(Cl)c(Cl)c(Cl)c(C#N)c1Cl [CHLOROTHALONIL],33.5,17,–,–
Cc1cc(C2CC2)nc(Nc2ccccc2)n1 [CYPRODINIL],76.8,52.4,–,–
CC(Cc1ccc(C(C)(C)C)cc1)CN1C[C@@H](C)O[C@@H](C)C1 (stereo not given in full) [FENPROPIMORPH],0.2,0.4,–,–
O=[N+]([O-])c1cc(C(F)(F)F)c(Cl)c([N+](=O)[O-])c1Nc1ncc(C(F)(F)F)cc1Cl [FLUAZINAM],24,50.6,–,–
COC(=O)N(OC)c1ccccc1COc1ccn(-c2ccc(Cl)cc2)n1 [PYRACLOSTROBIN],1.6,1.9,0.03,0.04
CC(C)(C)C(O)(CCc1ccc(Cl)cc1)Cn1cncn1 (stereo not given) [TEBUCONAZOLE],1.3,0.7,–,–
COC(=O)NC(=S)Nc1ccccc1NC(=S)NC(=O)OC [THIOPHANATE METHYL],1.5,1.7,–,–
CN(C)C(=S)SSC(=S)N(C)C [THIRAM],13.8,26.8,–,–
